Assay results from ChEMBL document CHEMBL1201862, “PubChem BioAssay data set” (2004).
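In this assay, cells in 96-well plates receive the compound at five concentrations for 48 hours. Endpoints are linearly interpolated between the surrounding concentrations. GI50 = concentration required for 50% inhibition of growth.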 Calls of active or inactive are those of the source. Cut-off read from the data, not from the text of the source: active = GI50 up to about 1.1 µM and inactive = higher.

Key:
Assay in all cases: growth of human tumour cells (NCI), 48 h
[1] = test system: 786-0
[2] = test system: A549
[3] = test system: ACHN
[4] = test system: EKVX
[5] = test system: HCC 2998
[6] = test system: K562
[7] = test system: M14
[8] = test system: Malme-3M
[9] = test system: NCI-H23
[10] = test system: SK-MEL-28
[11] = test system: SK-MEL-5
[12] = test system: SK-OV-3
[13] = test system: SNB-19
[14] = test system: SNB-75
[15] = test system: SR
[16] = test system: T47D
[17] = test system: U-251
[18] = test system: RPMI-8226
[19] = test system: RXF 393
[20] = test system: SK-MEL-2

SMILES | GI50 [1] | GI50 [2] | GI50 [3] | GI50 [4] | GI50 [5] | GI50 [6] | GI50 [7] | GI50 [8] | GI50 [9] | GI50 [10] | GI50 [11] | GI50 [12] | GI50 [13] | GI50 [14] | GI50 [15] | GI50 [16] | GI50 [17] | GI50 [18] | GI50 [19] | GI50 [20]
CC(C)c1ccc2nc3ccc(C(=O)NCCN(C)C)cn3c(=O)c2c1 | 14.6 µM (inactive) | 17.4 µM (inactive) | 27.5 µM (inactive) | 16.4 µM (inactive) | 14.1 µM (inactive) | 2.57 µM (inactive) | 14.6 µM (inactive) | 3.37 µM (inactive) | 15.5 µM (inactive) | 16.5 µM (inactive) | 12.4 µM (inactive) | 17.5 µM (inactive) | 35 µM (inactive) | 10.4 µM (inactive) | 17.5 µM (inactive) | 19.1 µM (inactive) | 19.9 µM (inactive) |  |  | 
O=C(O)c1nnsc1COCc1ccccc1 | > 100 µM (inactive) | > 100 µM (inactive) | > 100 µM (inactive) | > 100 µM (inactive) |  | > 100 µM (inactive) | > 100 µM (inactive) | > 100 µM (inactive) | > 100 µM (inactive) | > 100 µM (inactive) | > 100 µM (inactive) | > 100 µM (inactive) | > 100 µM (inactive) | > 100 µM (inactive) | > 100 µM (inactive) | > 100 µM (inactive) | > 100 µM (inactive) | > 100 µM (inactive) | > 100 µM (inactive) | > 100 µM (inactive)
CC(C)=CCNc1ncnc2c1c(C#N)cn2C1OC(CO)C(O)C1O (centres undefined) | > 100 µM (inactive) | 8.32 µM (inactive) | 9.82 µM (inactive) | 10.4 µM (inactive) |  | 3.86 µM (inactive) | > 58.3 µM (inactive) | > 77.6 µM (inactive) | > 56.5 µM (inactive) | > 100 µM (inactive) | 21.7 µM (inactive) | 16.9 µM (inactive) | > 53.8 µM (inactive) | 75.7 µM (inactive) | 5.45 µM (inactive) | 0.0386 µM (active) | > 67.5 µM (inactive) | 3.56 µM (inactive) | 71.1 µM (inactive) | 39.7 µM (inactive)
COc1ccc(CCNC(=O)Cc2cc(OC)c(OC)cc2CO)cc1OC | > 100 µM (inactive) | > 100 µM (inactive) | > 100 µM (inactive) | > 100 µM (inactive) | > 100 µM (inactive) | > 100 µM (inactive) | > 100 µM (inactive) |  | > 100 µM (inactive) | > 100 µM (inactive) | > 100 µM (inactive) | > 100 µM (inactive) |  | > 100 µM (inactive) | > 100 µM (inactive) | > 100 µM (inactive) | > 100 µM (inactive) | > 100 µM (inactive) | > 100 µM (inactive) | > 100 µM (inactive)
CC(C)=CC(=O)C[C@H]1C(=O)O[C@@H]2C[C@H]3C(C)=CC(=O)[C@@H](O)[C@]3(C)[C@H]3[C@@]4(O)OC[C@]32[C@@H]1[C@@H](C)[C@H]4O | 0.0266 µM (active) | 0.122 µM (active) | 0.0278 µM (active) | 0.175 µM (active) | 0.0313 µM (active) | < 0.01 µM (active) | 0.0196 µM (active) | < 0.01 µM (active) | < 0.01 µM (active) | < 0.0114 µM (active) | < 0.01 µM (active) | 0.187 µM (active) | < 0.0127 µM (active) | 0.0148 µM (active) | < 0.01 µM (active) | < 0.0111 µM (active) | < 0.01 µM (active) | < 0.01 µM (active) |  | 0.0311 µM (active)
Cc1cc2c(C)cc(=O)[nH]c2cc1N | > 100 µM (inactive) | > 100 µM (inactive) | > 100 µM (inactive) | 67.6 µM (inactive) | 61.4 µM (inactive) | > 100 µM (inactive) | > 100 µM (inactive) |  | > 100 µM (inactive) | > 100 µM (inactive) | > 100 µM (inactive) |  | > 100 µM (inactive) | 84.3 µM (inactive) | > 100 µM (inactive) | > 100 µM (inactive) | 72.9 µM (inactive) | > 100 µM (inactive) | > 100 µM (inactive) | 
Cc1nc2ccc(S(=O)(=O)O)cc2c(=O)n1-c1ccc(C(=O)NN2C(=O)C(Cl)C2c2ccccc2O)cc1 (centres undefined) | > 100 µM (inactive) | > 100 µM (inactive) | > 100 µM (inactive) | 60.1 µM (inactive) |  | > 100 µM (inactive) | > 100 µM (inactive) | > 100 µM (inactive) | > 100 µM (inactive) | > 100 µM (inactive) | > 100 µM (inactive) | > 100 µM (inactive) | > 100 µM (inactive) | > 100 µM (inactive) | > 100 µM (inactive) | > 100 µM (inactive) | > 100 µM (inactive) | > 100 µM (inactive) | > 100 µM (inactive) | > 100 µM (inactive)
Cc1cc(C)nc(NS(=O)(=O)c2ccc(Nc3c4ccccc4nc4c(C(=O)NC(CO)(CO)CO)cccc34)cc2)n1 | 29 µM (inactive) | 27.5 µM (inactive) | 34 µM (inactive) | 69 µM (inactive) | 16 µM (inactive) | 31.4 µM (inactive) | 37.2 µM (inactive) | > 10 µM (inactive) | 33.7 µM (inactive) | 27.1 µM (inactive) | 20.6 µM (inactive) | 31.9 µM (inactive) | 25.4 µM (inactive) | 5.65 µM (inactive) | 23.2 µM (inactive) | 37.8 µM (inactive) | 24.8 µM (inactive) | 22.8 µM (inactive) |  | 20.8 µM (inactive)
C=C(Cl)C(Cl)(CCl)CCC(Br)C(C)(C)Br (centres undefined) | > 10 µM (inactive) | > 10 µM (inactive) | > 10 µM (inactive) | > 10 µM (inactive) | > 10 µM (inactive) | > 10 µM (inactive) | > 10 µM (inactive) |  | > 10 µM (inactive) | > 10 µM (inactive) | > 10 µM (inactive) | > 10 µM (inactive) | > 10 µM (inactive) | > 10 µM (inactive) | > 10 µM (inactive) | > 10 µM (inactive) | > 10 µM (inactive) | > 10 µM (inactive) | > 10 µM (inactive) | > 10 µM (inactive)
O=C(/C=C/c1ccc2ccccc2c1)NCc1ccc(C(=O)NCCc2ccccc2)cc1 | 64.3 µM (inactive) | > 100 µM (inactive) | > 100 µM (inactive) |  | > 100 µM (inactive) | 52 µM (inactive) | > 100 µM (inactive) |  | > 100 µM (inactive) | > 100 µM (inactive) | > 100 µM (inactive) | > 100 µM (inactive) | > 100 µM (inactive) | 41.5 µM (inactive) | > 100 µM (inactive) | 65.5 µM (inactive) | > 100 µM (inactive) | > 100 µM (inactive) | > 100 µM (inactive) | > 100 µM (inactive)
C[N+]1(CCC(=O)c2ccco2)CC2CCC(CC2)C1 (centres undefined) | > 100 µM (inactive) | > 100 µM (inactive) | > 100 µM (inactive) | > 100 µM (inactive) |  | > 100 µM (inactive) | > 100 µM (inactive) | > 100 µM (inactive) | > 100 µM (inactive) | > 100 µM (inactive) | > 100 µM (inactive) |  | > 100 µM (inactive) | > 100 µM (inactive) | > 100 µM (inactive) | > 100 µM (inactive) | > 100 µM (inactive) | > 100 µM (inactive) | > 100 µM (inactive) | > 100 µM (inactive)
COC(=O)c1ccc(Oc2nc3ccccc3nc2-c2cccs2)cc1 | 34.4 µM (inactive) | 26.1 µM (inactive) | 71.3 µM (inactive) | > 100 µM (inactive) |  | > 10 µM (inactive) | 89.5 µM (inactive) | > 100 µM (inactive) | 23.6 µM (inactive) | > 100 µM (inactive) | > 100 µM (inactive) | 35.5 µM (inactive) | 27.5 µM (inactive) | 7.83 µM (inactive) | 48.5 µM (inactive) | 60.8 µM (inactive) |  |  | 4.79 µM (inactive) | > 100 µM (inactive)
O=S(=O)(O)c1c(Cl)cc(O)c2ncccc12 | > 100 µM (inactive) | > 100 µM (inactive) | > 100 µM (inactive) | > 100 µM (inactive) | > 100 µM (inactive) | > 100 µM (inactive) | > 100 µM (inactive) |  | > 100 µM (inactive) | > 100 µM (inactive) | > 100 µM (inactive) |  | > 100 µM (inactive) | > 100 µM (inactive) | > 100 µM (inactive) | > 100 µM (inactive) | > 100 µM (inactive) | > 100 µM (inactive) | > 100 µM (inactive) | > 100 µM (inactive)
Cn1c2ccccc2n2c3ccccc3c(=S)c(C#N)c12 | 92.3 µM (inactive) | > 100 µM (inactive) | > 100 µM (inactive) | > 100 µM (inactive) | > 100 µM (inactive) | > 100 µM (inactive) | > 100 µM (inactive) |  | > 100 µM (inactive) | > 100 µM (inactive) | > 100 µM (inactive) | > 100 µM (inactive) | > 100 µM (inactive) | > 100 µM (inactive) | > 100 µM (inactive) | > 10 µM (inactive) | > 100 µM (inactive) | > 100 µM (inactive) | > 100 µM (inactive) | > 100 µM (inactive)
COc1cccc(-c2nc(N)c(C#N)c3c2CCS(=O)(=O)c2ccc(C)cc2-3)c1 | 22.6 µM (inactive) | 11.6 µM (inactive) | > 100 µM (inactive) | 50.6 µM (inactive) | 17.6 µM (inactive) | 3.21 µM (inactive) | 25.7 µM (inactive) | 18.2 µM (inactive) | 43.1 µM (inactive) | > 78.5 µM (inactive) | 5.81 µM (inactive) | 46.7 µM (inactive) | > 31.3 µM (inactive) | 10.4 µM (inactive) | 1.26 µM (inactive) | 43.2 µM (inactive) | 36.6 µM (inactive) |  |  | 38.3 µM (inactive)
